In patent publication US10828315B2 (Madrigal Pharmaceuticals, Inc., priority 2013, dated 2020) one finds IC50 data, which are given here for 13 compounds.

The structures appear in SMILES notation. Counter-ions that a name gives are not always drawn. Some results are limits rather than exact numbers.

The subject of the assay is HER2. Nature of the assay: HER2 degradation assay with BT-474 cell line (Example 12, FACS). Type of assay: cell-based, human. From the text: HER2 has emerged as a key target for anticancer drugs due to its intrinsic involvement in the phosphatidylinositol-3-kinase-Akt/protein kinase B (PI3K-Akt) and the mitogen-activated protein kinase (MAPK) pathways, both of which suppress apoptosis and promote tumor cell survival, gene transcription, angiogenesis, cellular proliferation, migration, mitosis, and differentiation. The degradation of HER2 is a measure of efficacy of anticancer therapeutics that target Hsp90. Accordingly, the SDC-TRAP molecules of the invention that comprise a binding moiety that binds Hsp90 were tested in the following HER2 degradation assay.
BT-474 cells (human breast cancer cell line ATCC HTB-20) were obtained from ATCC and seeded into 12-well tissue culture plates at 0.2×10^6/1.8 mL/well. […] Each test compound was titrated in 4-fold dilutions from 5 μM to 78 nM with DMSO and 200 μL of the titration was added to each well of the cell plate. The DMSO final concentration was 0.2%. Cells were incubated overnight at 37° C. in 5% CO2.
Media was decanted from the plate, cells were washed 1× in PBS. 400 μL trypsin (EDTA) per well was added, and the cells were incubated for 2 to 3 minutes. Cells were collected into FACS tubes containing 1 ml culture medium to neutralize the trypsin and were centrifuged for 5 minutes at 1200 rpm. Supernatant was decanted and the cells were resuspended in 5 μL FITC (anti HER2/nu)/200 μL staining buffer (1×PBS+1% FBS+0.05% Sodium Azide)/tube. Controls were 5 μL IgG isotype control and staining buffer only. Tubes were incubated for 30 minutes in the dark at room temperature. 1 mL staining buffer was added to each tube and the tubes were centrifuged for 6 minutes at 1200 rpm. The supernatant was decanted and 300 μL staining buffer was added to each tube, which was store at 4° C. fpr FACS (cytometer) analysis. The cytometer readout was normalized and the potency of each compound is evaluated with IC50 calculated with XLfit™ software.
`CC(C)c1cc(-c2nnc(O)n2-c2ccc(CN3CCN(C(=O)Oc4ccc5c(c4)C[C@@H](CCCCCCCCC[S+]([O-])CCCC(F)(F)C(F)(F)F)[C@@H]4[C@@H]5CC[C@]5(C)[C@@H](O)CC[C@@H]45)CC3)cc2)c(O)cc1O` (stereo partly drawn) [SDC-TRAP-0148, (7R,8R,9S,13S,14S,17S)-17-hydroxy-13-methyl-7-(9-((4,4,5,5,5-pentafluoropentyl)sulfinyl)nonyl)-7,8,9,11,12,13,14,15,16,17-decahydro-6H-cyclopenta[a]phenanthren-3-yl 4-(4-(3-(2,4-dihydroxy-5-isopropylphenyl)-5-hydroxy-4H-1,2,4-triazol-4-yl)benzyl)piperazine-1-carboxylate] showed an IC50 of 3040 nM.

In turn, `CCNC(=O)c1nnc(-c2cc(C(C)C)c(O)cc2O)n1-c1ccc(C(=O)N2CCN(c3ccc(OC(=O)Nc4cccc5c4CN(C4CCC(=O)NC4=O)C5=O)c(OC)c3)CC2)cc1` (stereo not shown) [SDC-TRAP-0173, 4-(4-(4-(3-(2,4-dihydroxy-5-isopropylphenyl)-5-(ethylcarbamoyl)-4H-1,2,4-triazol-4-yl)benzoyl)piperazin-1-yl)-2-methoxyphenyl (2-(2,6-dioxopiperidin-3-yl)-1-oxoisoindolin-4-yl)carbamate] showed an IC50 of 323 nM.

Regarding `CCc1c2c(nc3ccc(O)cc13)-c1cc3c(c(=O)n1C2)COC(=O)[C@@]3(CC)OC(=O)N1CCC(N2Cc3ccc(-n4c(O)nnc4-c4cc(C(C)C)c(O)cc4O)cc3C2)CC1` [SDC-TRAP-0092, (S)-4,11-diethyl-9-hydroxy-3,14-dioxo-3,4,12,14-tetrahydro-1H-pyrano[3′,4′:6,7]indolizino[1,2-b]quinolin-4-yl 4-(5-(3-(2,4-dihydroxy-5-isopropylphenyl)-5-hydroxy-4H-1,2,4-triazol-4-yl)isoindolin-2-yl)piperidine-1-carboxylate], the IC50 is 4710 nM.

In turn, `CCc1c2c(nc3ccc(OC(=O)N4CCC(CN5CCN(Cc6ccc(-n7c(O)nnc7-c7cc(C(C)C)c(O)cc7O)cc6)CC5)CC4)cc13)-c1cc3c(c(=O)n1C2)COC(=O)[C@]3(O)CC` [SDC-TRAP-0088] had an IC50 of 221 nM.

`CCc1c2c(nc3ccc(OC(C)=O)cc13)-c1cc3c(c(=O)n1C2)COC(=O)C3(CC)OC(=O)N(C)CCCCN1CCN(Cc2ccc(-n3c(O)nnc3-c3cc(C(C)C)c(O)cc3O)cc2)CC1` (stereo not shown) [SDC-TRAP-0181, 4-(((4-(4-(4-(3-(2,4-Dihydroxy-5-isopropylphenyl)-5-hydroxy-4H-1,2,4-triazol-4-yl)benzyl)piperazin-1-yl)butyl)(methyl)carbamoyl)oxy)-4,11-diethyl-3,14-dioxo-3,4,12,14-tetrahydro-1H-pyrano[3′,4′:6,7]indolizino[1,2-b]quinolin-9-yl acetate] came in with an IC50 of 164 nM.

For the compound `CCNC(=O)c1nnc(-c2cc(C(C)C)c(O)cc2O)n1-c1ccc(OC2CCN(C(=O)[C@@H]3CCCN3C(=O)O[C@]3(CC)C(=O)OCc4c3cc3n(c4=O)Cc4c-3nc3ccc(O)cc3c4CC)CC2)cc1` [SDC-TRAP-0214, (S)—(S)-4,11-diethyl-9-hydroxy-3,14-dioxo-3,4,12,14-tetrahydro-1H-pyrano[3′,4′:6,7]indolizino[1,2-b]quinolin-4-yl 2-(4-(4-(3-(2,4-dihydroxy-5-isopropylphenyl)-5-(ethylcarbamoyl)-4H-1,2,4-triazol-4-yl)phenoxy)piperidine-1-carbonyl)pyrrolidine-1-carboxylate], the IC50 was > 5000 nM.

In the case of `CCc1c2c(nc3ccc(OC(=O)N4CCC(CN5CCC(Cc6ccc(-n7c(O)nnc7-c7cc(C(C)C)c(O)cc7O)cc6)CC5)CC4)cc13)-c1cc3c(c(=O)n1C2)COC(=O)C3(O)CC` (stereo not shown) [SDC-TRAP-0067, 4,11-diethyl-4-hydroxy-3,14-dioxo-3,4,12,14-tetrahydro-1H-pyrano[3′,4′:6,7]indolizino[1,2-b]quinolin-9-yl 4-((4-(4-(3-(2,4-dihydroxy-5-isopropylphenyl)-5-hydroxy-4H-1,2,4-triazol-4-yl)benzyl)piperidin-1-yl)methyl)piperidine-1-carboxylate], half-maximal inhibition (IC50) was put at 196 nM.

For the compound `CCc1c2c(nc3ccc(O)cc13)-c1cc3c(c(=O)n1C2)COC(=O)[C@@]3(CC)OC(=O)N1CCC(Oc2ccc(-n3c(O)nnc3-c3cc(C(C)C)c(O)cc3O)cc2)CC1` [SDC-TRAP-0012, (S)-4,11-diethyl-9-hydroxy-3,14-dioxo-3,4,12,14-tetrahydro-1H-pyrano[13′,4′:6,7]indolizino[1,2-b]quinolin-4-yl-4-(4-(3-(2,4-dihydroxy-5-isopropylphenyl)-5-hydroxy-4H-1,2,4-triazol-4-yl)phenoxy)piperidine-1-carboxylate hydrochloride], the IC50 was > 5000 nM.

In the case of `CCc1c2c(nc3ccc(OC(=O)N(C)CCNC(=O)c4nnc(-c5cc(C(C)C)c(O)cc5O)n4-c4cccnc4)cc13)-c1cc3c(c(=O)n1C2)COC(=O)C3(O)CC` (stereo not shown) [SDC-TRAP-0112, 4,11-Diethyl-4-hydroxy-3,14-dioxo-3,4,12,14-tetrahydro-1H-pyrano[3′,4′:6,7]indolizino[1,2-b]quinolin-9-yl (2-(5-(2,4-dihydroxy-5-isopropylphenyl)-4-(pyridin-3-yl)-4H-1,2,4-triazole-3-carboxamido)ethyl)(methyl)carbamate], the IC50 is > 5000 nM.

On to `CCc1c2c(nc3ccc(O)cc13)-c1cc3c(c(=O)n1C2)COC(=O)[C@@]3(CC)OC(=O)N1CCN(c2ccc(-n3c(O)nnc3-c3cc(C(C)C)c(O)cc3O)cn2)CC1` [SDC-TRAP-0091, (S)-4,11-diethyl-9-hydroxy-3,14-dioxo-3,4,12,14-tetrahydro-1H-pyrano[3′,4′:6,7]indolizino[1,2-b]quinolin-4-yl 4-(5-(3-(2,4-dihydroxy-5-isopropylphenyl)-5-hydroxy-4H-1,2,4-triazol-4-yl)pyridin-2-yl)piperazine-1-carboxylate], for which the IC50 was > 5000 nM.

In turn, `CCc1c2c(nc3ccc(O)cc13)-c1cc3c(c(=O)n1C2)COC(=O)C3(CC)OC(=O)N1CCN(Cc2ccc(-n3c(O)nnc3-c3cc(C(C)C)c(O)cc3O)cc2F)CC1` (stereo not shown) [SDC-TRAP-0079, 4,11-diethyl-9-hydroxy-3,14-dioxo-3,4,12,14-tetrahydro-1H-pyrano[3′,4′:6,7]indolizino[1,2-b]quinolin-4-yl 4-(4-(3-(2,4-dihydroxy-5-isopropylphenyl)-5-hydroxy-4H-1,2,4-triazol-4-yl)-2-fluorobenzyl)piperazine-1-carboxylate] yielded an IC50 of 1430 nM. In other words, the single-digit micromolar range.

With `CCNC(=O)c1nnc(-c2cc(C(C)C)c(O)cc2O)n1-c1ccc(C(=O)N2CCN(c3ccc(OC(=O)Nc4cccc5c4CN(C4CCC(=O)NC4=O)C5=O)c(C)c3)CC2)cc1` (stereo not shown) [SDC-TRAP-0176, 4-(4-(4-(3-(2,4-dihydroxy-5-isopropylphenyl)-5-(ethylcarbamoyl)-4H-1,2,4-triazol-4-yl)benzoyl)piperazin-1-yl)-2-methylphenyl (2-(2,6-dioxopiperidin-3-yl)-1-oxoisoindolin-4-yl)carbamate], the IC50 is 178 nM.

On to `CCc1c2c(nc3ccc(OC(=O)N(C)CCCN4CCN(Cc5ccc(-n6c(O)nnc6-c6cc(C(C)C)c(O)cc6O)cc5)CC4)cc13)-c1cc3c(c(=O)n1C2)COC(=O)[C@]3(O)CC` [SDC-TRAP-0065, (S)-4,11-diethyl-4-hydroxy-3,14-dioxo-3,4,12,14-tetrahydro-1H-pyrano[3′,4′:6,7]indolizino[1,2-b]quinolin-9-yl (3-(4-(4-(3-(2,4-dihydroxy-5-isopropylphenyl)-5-hydroxy-4H-1,2,4-triazol-4-yl)benzyl)piperazin-1-yl)propyl)(methyl)carbamate], for which half-maximal inhibition (IC50) was put at 661 nM. This IC50 lies about 3.7-fold higher than the previous one.
